Measurements: PMC6272715, “Discovery of Novel Small Molecule Anti-HCV Agents via the CypA Inhibitory Mechanism Using O-Acylation-Directed Lead Optimization” (Molecules, 2015)
Like-named read-outs stand apart in the source and are kept apart here.

Columns and labels:
[1] = Cell proliferation (cytotoxicity) assay, WST-1; type: cell-based; conditions: human
Description: Cell Proliferation Assay: Huh 7.5.1 cells were seeded at a density of 2 × 10^4 cells per well in 96-well plates overnight. The cells were respectively incubated with serial diluted compounds for 48 h, and the viability of Huh7.5.1 cells was determined in 96-well tissue culture plates using cell proliferation reagent WST-1 (Roche, Basel, Switzerland). The absorbance (OD450 /reference OD630) was measured to detect the cytotoxicity of compounds, according to the manufacturer’s protocol of Cell Proliferation Reagent WST-1.

[2] = test system: T spleen cells; assay: Spleen cells proliferation inhibition assay (MTT), T spleen cells; type: cell-based, mouse (ICR); conditions: mouse spleen cells, 72 h, read-out: T Spleen Cells IC50 ± SD
Description: Preparation of Splenocyte Suspension: The spleen was aseptically taken from female ICR mice strains (6–8 weeks-old, 20 ± 2 g), crushed gently and separated into single cells by squeezing in 20 mL RPMI 1640 medium (Invitrogen, shanghai, China). The cells obtained were passed through […] nylon cell strainer and centrifuged at 1000 rpm∙min^−1 for 5 min at RT. Pellets were added into 10 mL erythrocytes lysis buffer (150 mM NH4Cl, 10 mM KHCO3 and 0.1 mM EDTA) followed by centrifugation to remove erythrocytes. After washing twice with complete medium (RPMI 1640 containing 100 U∙mL^−1 of penicillin, 100 U∙mL^−1 of streptomycin and 10% FBS), they were re-suspended in the complete medium and used for cell culture.
After 72 h of incubation, the cell growth was evaluated with MTT assay. The assay plates were added 10 μL of 5 mg∙mL^−1 MTT per well and incubated for 4 h. The formazan generated was solubilized with 100 μL of solution (10% SDS, 5% isobutyl alcohol, and 10 mM HCl) after incubated at 37 °C overnight. The absorption at 580 nm relative to 680 nm was measured by SpectraMax Plus 384 Reader (Molecular Devices, Shanghai, China).

[3] = test system: HCV H77-1a replicon; assay: HCV H77-1a subgenomic replicon assay; type: cell-based; conditions: Hepatitis C virus; Table 4; read-out: Anti-HCV Activity EC50 ± SD Replicon Assay H77-1a
[4] = test system: HCV Con1-1b replicon; assay: HCV Con1-1b subgenomic replicon assay; type: cell-based; conditions: Hepatitis C virus; Table 4; read-out: Anti-HCV Activity EC50 ± SD Replicon Assay Con1-1b
[5] = test system: JFH1-2a (S282T) virus; assay: HCV virus assay, mutant JFH1-2a (S282T) virus strain; type: cell-based; conditions: Hepatitis C virus, read-out: Anti-HCV Activity (Virus Assay) EC50 ± SD JFH1-2a (S282T)
[6] = test system: B spleen cells; assay: Spleen cells proliferation inhibition assay (MTT), B spleen cells; type: cell-based, mouse (ICR); conditions: mouse spleen cells, 72 h, read-out: B Spleen Cells IC50 ± SD
Description: Preparation of Splenocyte Suspension: The spleen was aseptically taken from female ICR mice strains (6–8 weeks-old, 20 ± 2 g), crushed gently and separated into single cells by squeezing in 20 mL RPMI 1640 medium (Invitrogen, shanghai, China). The cells obtained were passed through 70 μM nylon cell strainer and centrifuged at 1000 rpm∙min^−1 for 5 min at RT. Pellets were added into 10 mL erythrocytes lysis buffer (150 mM NH4Cl, 10 mM KHCO3 and 0.1 mM EDTA) followed by centrifugation to remove erythrocytes. After washing twice with complete medium (RPMI 1640 containing 100 U∙mL^−1 of penicillin, 100 U∙mL^−1 of streptomycin and 10% FBS), they were re-suspended in the complete medium and used for cell culture.

[7] = test system: HCV JFH1-2a replicon; assay: HCV JFH1-2a subgenomic replicon assay (Renilla luciferase, Huh 7.5.1 replicon cells); type: cell-based; conditions: Hepatitis C virus
[8] = in vivo; conditions: male, SD, rat, iv, i.v. 2 mg 25/kg; for AUC(0-inf): AUC0-∞
[9] = test system: JFH1-2a virus (wild type); assay: HCV virus assay, JFH1-2a wild type, Huh 7.5.1 cells; conditions: Hepatitis C virus
[10] = rats, intravenous injection of 25 (2 mg∙kg^−1)
[11] = target: CypA (Homo sapiens, UniProt P62937); assay: CypA enzyme inhibition assay (chymotrypsin-coupled PPIase assay); type: biochemical; conditions: mean ± SD of five independent experiments
Description: The PPIase activity of CypA was conducted in a coupled assay with chymotrypsin using the synthetic tetrapeptide N-succinyl-Ala-Ala-Pro-Phe-p-nitroanilide (Sigma, Shanghai, China) as described in [34] with small modifications. The assay buffer (20 mM Tris-HCl, 50 mM NaCl, pH 7.8) and CypA were precooled at 4 °C and mixed with 0.4 mg∙mL^−1 chymotrypsin (20 mg∙mL^−1 in 1 mM HCl). The reaction was initiated by adding peptide substrate (2 mg∙mL^−1 in 500 mM LiCl in tetrahydrofuran (THF)). […] Absorbance readings were collected every 0.1 s and the temperature was controlled at 4 °C during the assay. The progress curves were analyzed by nonlinear least-squares fit. The inhibition assays of compounds were performed in the same manner as above-mentioned. […] of test compounds in DMSO, at various concentrations, was added to the CypA solution in the assay buffer. After being preincubated for 1 h at 4 °C, the assay was started by the addition of chymotrypsin and the substrate. To calculate the half-maximal inhibitory concentration (IC50), a percent of the remaining PPIase activity was plotted against the common logarithm of the compound concentration, and the data were fitted using the sigmoidal fitting model of Origin 7.0 software.

[12] = test system: HCV subgenomic replicon; conditions: cited from earlier work
[13] = Table 1, mean ± SD of three independent experiments, read-out: Anti-HCV JFH1-2a Replicon Assay EC50 ± SD
[14] = Table 4, read-out: Anti-HCV Activity EC50 ± SD Replicon Assay JFH1-2a
[15] = SD rats, Mean ± SD (Rat 1 and 3)
[16] = Huh-7.5.1, read-out: Anti-HCV Activity (Virus Assay) EC50 ± SD JFH1-2a (Wild Type)
[17] = Huh-7.5.1, read-out: Anti-HCV Activity EC50 ± SD Virus Assay JFH1-2a

Chain of CypA (P62937 whole entry): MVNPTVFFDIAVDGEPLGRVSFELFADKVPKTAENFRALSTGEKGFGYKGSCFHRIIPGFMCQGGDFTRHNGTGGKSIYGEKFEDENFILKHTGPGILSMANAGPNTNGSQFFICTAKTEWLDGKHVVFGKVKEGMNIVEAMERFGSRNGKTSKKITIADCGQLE

| Structure (SMILES) | CC50 at 48 h ([1]; Huh 7.5.1 cells, Table 4, 48 h) [nM] | EC50 [3] [nM] | EC50 [4] [nM] | EC50 [7, 14] [nM] | EC50 [9, 17] [nM] | melting point [°C] | further results |
| --- | --- | --- | --- | --- | --- | --- | --- |
| O=C(NC(=O)c1c(O)cccc1O)NC1c2ccccc2-c2ccccc21 [Compound 1] | > 16000 | 1110 ± 330 | 780 ± 190 | 920 ± 120 | 670 ± 230 |  | CC50 at 48 h ([1]; Huh 7.5.1 cells, Table 5): > 20000 nM; IC50 [2]: 33000 ± 5720 nM; EC50 [5]: 560 ± 130 nM; IC50 [6]: 51900 ± 8680 nM; EC50 [7, 13]: 920 ± 120 nM; AUC(0-inf) ([8]; SD rat, Rat 1): 335 ng·h/mL; AUC(0-inf) ([8]; SD rat, Rat 3): 324 ng·h/mL; AUC(0-inf) [8, 15]: 329 ± 8.08 ng·h/mL; Cmax ([8]; SD rat, Rat 1): 698 ng/mL; Cmax ([8]; SD rat, Rat 3): 1110 ng/mL; Cmax [8, 15]: 904 ± 292 ng/mL; MRT ([8]; SD rat, Rat 1): 0.94 h; MRT ([8]; SD rat, Rat 3): 0.55 h; MRT [8, 15]: 0.75 ± 0.28 h; half-life ([8]; t1/2, SD rat, Rat 1): 1.84 h; half-life ([8]; t1/2, SD rat, Rat 3): 1.21 h; half-life ([8]; t1/2, SD rats, Mean ± SD (Rat 1 and 3)): 1.53 ± 0.45 h; EC50 [9, 16]: 520 ± 160 nM; plasma concentration after 5 min (mean ± SD) [10]: 904.5 ± 291.9 ng/mL |
| CC(=O)Oc1cccc(O)c1C(=O)NC(=O)NC1c2ccccc2-c2ccccc21 [Compound 14, 1-(2-Acetoxy-6-hydroxybenzoyl)-3-(9H-fluoren-9-yl)-urea] | > 16000 | 770 ± 370 | 800 ± 230 | 550 ± 30 | 710 ± 340 |  | IC50 [11]: 2430 ± 500 nM; EC50 [7, 13]: 550 ± 30 nM |
| O=C(NC(=O)c1c(O)cccc1OC(=O)c1ccccc1)NC1c2ccccc2-c2ccccc21 [Compound 18, 1-(2-Benzoyloxy-6-hydroxybenzoyl)-3-(9H-fluoren-9-yl)-urea] | > 16000 | 600 ± 350 | 1030 ± 20 | 1050 ± 10 | 700 ± 230 | 211 to 214 | IC50 [11]: 1990 ± 470 nM |
| O=C(NC(=O)c1c(OC(=O)c2ccccc2)cccc1OC(=O)c1ccccc1)NC1c2ccccc2-c2ccccc21 [Compound 26, 1-[2,6-Bis-(benzoyloxy)benzoyl]-3-(9H-fluoren-9-yl)-urea] | > 16000 | 530 ± 210 | 390 ± 50 | 360 ± 30 | 1090 ± 30 | 211 to 213 |  |
| CCC(=O)Oc1cccc(OC(=O)CC)c1C(=O)NC(=O)NC1c2ccccc2-c2ccccc21 [Compound 27, 1-[2,6-Bis-(propionyloxy)benzoyl]-3-(9H-fluoren-9-yl)-urea] | > 16000 | 520 ± 270 | 380 ± 20 | 380 ± 30 | 420 ± 80 | 165 to 167 |  |
| CCCC(=O)Oc1cccc(OC(=O)CCC)c1C(=O)NC(=O)NC1c2ccccc2-c2ccccc21 [Compound 28, 1-[2,6-Bis-(n-butyryloxy)benzoyl]-3-(9H-fluoren-9-yl)-urea] | > 16000 | 790 ± 200 | 620 ± 150 | 840 ± 320 | 680 ± 470 | 186 to 188 |  |
| O=C(NC(=O)c1c(OC(=O)C2CC2)cccc1OC(=O)C1CC1)NC1c2ccccc2-c2ccccc21 [Compound 29, 1-[2,6-Bis-(cyclopropylformyloxy)benzoyl]-3-(9H-fluoren-9-yl)-urea] | > 16000 | 520 ± 140 | 600 ± 190 | 420 ± 140 | 740 ± 350 | 183 to 186 |  |
| CCCCC(=O)Oc1cccc(OC(=O)CCCC)c1C(=O)NC(=O)NC1c2ccccc2-c2ccccc21 [Compound 30, 1-[2,6-Bis-(valeryloxy)benzoyl]-3-(9H-fluoren-9-yl)-urea] | > 16000 | 730 ± 110 | 830 ± 260 | 620 ± 50 | 470 ± 10 | 172 to 174 |  |
| CC(C)(C)C(=O)Oc1cccc(OC(=O)C(C)(C)C)c1C(=O)NC(=O)NC1c2ccccc2-c2ccccc21 [Compound 31, 1-[2,6-Bis-(trimethylacetoxyloxy)benzoyl]-3-(9H-fluoren-9-yl)-urea] | > 16000 | 870 ± 270 | 560 ± 200 | 750 ± 290 | 840 ± 210 | 202 to 205 |  |
| CCCCCC(=O)Oc1cccc(OC(=O)CCCCC)c1C(=O)NC(=O)NC1c2ccccc2-c2ccccc21 [Compound 32, 1-[2,6-Bis-(hexanoyloxy)benzoyl]-3-(9H-fluoren-9-yl)-urea] | > 16000 | 630 ± 290 | 730 ± 340 | 380 ± 50 | 740 ± 310 | 162 to 165 |  |
| CCCCCCCC(=O)Oc1cccc(OC(=O)CCCCCCC)c1C(=O)NC(=O)NC1c2ccccc2-c2ccccc21 [Compound 33, 1-[2,6-Bis-(n-Octanoyloxy)benzoyl]-3-(9H-fluoren-9-yl)-urea] | > 16000 | 540 ± 150 | 730 ± 200 | 980 ± 10 | 950 ± 20 | 152 to 153 |  |
| C/C=C/C[C@@H](C)[C@@H](O)[C@H]1C(=O)N[C@@H](CC)C(=O)N(C)[C@H](SCCN(C)C)C(=O)N(C)[C@@H](CC(C)(C)O)C(=O)N[C@@H](C(C)C)C(=O)N(C)[C@@H](CC(C)C)C(=O)N[C@@H](C)C(=O)N[C@H](C)C(=O)N(C)[C@@H](CC(C)C)C(=O)N(C)[C@@H](CC(C)C)C(=O)N(C)[C@@H](C(C)C)C(=O)N1C [SCY-635] |  |  |  |  |  |  | EC50 ([12]; ref [27], read-out: EC50 (subgenomic replicon assay, con1-derived)): 100 nM |
| CC(C)OC(=O)[C@H](C)N[P@](=O)(OC[C@H]1O[C@@H](n2ccc(=O)[nH]c2=O)[C@](C)(F)[C@@H]1O)Oc1ccccc1 [Sofosbuvir, reference compound] |  |  |  |  |  |  | CC50 at 48 h ([1]; Table 5): > 20000 nM; EC50 [5]: 1140 ± 210 nM; EC50 [9, 16]: 220 ± 70 nM |
| C/C=C/C[C@@H](C)[C@@H](O)[C@H]1C(=O)N[C@@H](CC)C(=O)N(C)[C@H](C)C(=O)N(CC)[C@@H](C(C)C)C(=O)N[C@@H](C(C)C)C(=O)N(C)[C@@H](CC(C)C)C(=O)N[C@@H](C)C(=O)N[C@H](C)C(=O)N(C)[C@@H](CC(C)C)C(=O)N(C)[C@@H](CC(C)C)C(=O)N(C)[C@@H](C(C)C)C(=O)N1C [alisporivir] |  |  |  |  |  |  | EC50 ([12]; ref [6], read-out: EC50 (subgenomic replicon assay)): 45 nM |
